SMILES strings stand for the structures.

The source of these data is patent publication US20230330233A1, “COMPOSITIONS AND METHODS FOR DELIVERING PHARMACEUTICAL AGENTS” (priority 2018, published 2023).

A short description of series [1]: Dissolution in SG media containing methyl cellulose polymer, Example 2. The series is classed as physicochemical. The following applies: SG media with methyl cellulose polymer, Average (Standard Error of the Mean). An excerpt: (§1) This Example described further characterization of a variety of drugs in MOF-5. Methyl cellulose polymer was included in both SG and PBS) dissolution media to inhibit precipitation of drug molecules at high supersaturation and to serve as a proxy for what would be an extensive formulation process of this supersaturating drug delivery system. […] Immediate release of CUR molecules from CUR@MOF-5 via MOF hydrolytic decomposition leads to rapid dissolution which generates high supersaturation in the first 60 min (FIGS. 5a and b). […] This immediate drug release from drug@MOF-5 composite is in contrast with controlled drug release from an amorphous drug@MOF composite with a water stable framework ([…] al., Chem. Commun. 2015, 51, 13878).

Series [2] can be described thus: Dissolution and supersaturation in phosphate buffer saline (PBS) media, UV-vis, Example 1. The series is classed as physicochemical. The following applies: for AUC0-4 / Cmax: 37° C., Average (Standard Error of the Mean). The procedure: (§2) To determine the dissolution and supersaturation behavior in SG and PBS media of all CUR, SUL, CUR@MOF-5 and SUL@MOF-5 composites and their physical mixture samples, UV-vis spectroscopy (which is applied to monitor the dissolution process) was used. Concentration of CUR and SUL at 37° C. was determined. FIGS. 4a-d illustrate the solubility of pure CUR, CUR@MOF-5 composite and physical mixture and pure SUL, SUL@MOF-5 composite and physical mixture in SG and PBS media respectively. […] Because the immediate release of CUR molecules (from CUR@mof-5 composite) led to rapid dissolution, which generates high supersaturation in the first 60 min. […] Subsequently, a crystallization process occurs accompanied by a decrease in CUR concentration in both media.

A short description of series [3]: Dissolution and supersaturation in simulated gastric (SG) media, UV-vis, Example 1. The series is classed as physicochemical. The following applies: 37° C., Average (Standard Error of the Mean). The procedure: as §2
Series [4] can be described thus: Dissolution in PBS media containing methyl cellulose polymer, Example 2. The class given is physicochemical. The following applies: PBS media with methyl cellulose polymer, Average (Standard Error of the Mean).
Text: as §1

The next series relates to mouse model. The following applies: oral, Ullmann's Encyclopedia; cited from earlier work.

With `CC1=C(CC(=O)O)c2cc(F)ccc2/C1=C\c1ccc([S+](C)[O-])cc1` (stereo not drawn) [SUL, sulindac], in series [1], the AUC0-4 is given as 1.38(2) mg*h/mL and the Cmax is listed as 6.84(7) μg/mL. For the same compound, in series [2], the “dissolution behavior in PBS media” value is reported as “fully dissolved”, the AUC0-4 is 15.82(21) mg*h/mL and the Cmax is listed as 68.65(91) μg/mL. Moreover, in series [3], the AUC0-4 is 1.32(2) mg*h/mL and the Cmax is on record as 6.01(6) μg/mL.

For `COc1cc(/C=C/C(=O)CC(=O)/C=C/c2ccc(O)c(OC)c2)ccc1O` [CUR, curcumin], the AUC0-4 in series [1] is on record as 0.39(6) mg*h/mL; in series [2] it was 0.22(3) mg*h/mL; in series [4] it was 0.15(2) mg*h/mL; in series [3] it was 0.41(6) mg*h/mL. The Cmax in series [1] is 2.12(21) μg/mL; in series [2], 1.12(7) μg/mL; in series [4], 0.95(4) μg/mL; in series [3], 1.99(4) μg/mL.

As to `O=C(O)c1ccc(C(=O)O)cc1` [terephthalic acid], the “lethal dose, LD50” value in the series with mouse model is “over 1 g/kg”.

Regarding `Nc1nc(N)c2nc(-c3ccccc3)c(N)nc2n1` [TAT, triamterene], in series [4], the AUC0-4 is listed as 5.89(9) mg*h/mL and the Cmax is given as 26.89(8) μg/mL.
